According to patent US12599617B2, “Methods of treating head and neck cancers with hemp extract” (Ecofibre USA Inc., priority 2021, dated 2026):

Assays:
[1] = test system: patient derived organoids; experiment: Response / % cell death of patient derived organoids; assay type: cell-based, human; details: for % Cell Death: patient derived organoids treated with the drug
Source text: A few of the above materials, as well as additional drugs were tried for response to patient derived organoids in Table 4, below, which details the % of cell death of the patient derived organoids, when treated with the relevant drug product.

[2] = cited from earlier work
[3] = test system: human head and neck cancer organoids; experiment: Head and neck cancer organoid viability, cannabis extracts and paclitaxel alone or combined
P-glycoprotein = P-glycoprotein (Homo sapiens, UniProt P08183); details: in vitro study; cited from earlier work
Sequence of P-glycoprotein (P08183 whole entry): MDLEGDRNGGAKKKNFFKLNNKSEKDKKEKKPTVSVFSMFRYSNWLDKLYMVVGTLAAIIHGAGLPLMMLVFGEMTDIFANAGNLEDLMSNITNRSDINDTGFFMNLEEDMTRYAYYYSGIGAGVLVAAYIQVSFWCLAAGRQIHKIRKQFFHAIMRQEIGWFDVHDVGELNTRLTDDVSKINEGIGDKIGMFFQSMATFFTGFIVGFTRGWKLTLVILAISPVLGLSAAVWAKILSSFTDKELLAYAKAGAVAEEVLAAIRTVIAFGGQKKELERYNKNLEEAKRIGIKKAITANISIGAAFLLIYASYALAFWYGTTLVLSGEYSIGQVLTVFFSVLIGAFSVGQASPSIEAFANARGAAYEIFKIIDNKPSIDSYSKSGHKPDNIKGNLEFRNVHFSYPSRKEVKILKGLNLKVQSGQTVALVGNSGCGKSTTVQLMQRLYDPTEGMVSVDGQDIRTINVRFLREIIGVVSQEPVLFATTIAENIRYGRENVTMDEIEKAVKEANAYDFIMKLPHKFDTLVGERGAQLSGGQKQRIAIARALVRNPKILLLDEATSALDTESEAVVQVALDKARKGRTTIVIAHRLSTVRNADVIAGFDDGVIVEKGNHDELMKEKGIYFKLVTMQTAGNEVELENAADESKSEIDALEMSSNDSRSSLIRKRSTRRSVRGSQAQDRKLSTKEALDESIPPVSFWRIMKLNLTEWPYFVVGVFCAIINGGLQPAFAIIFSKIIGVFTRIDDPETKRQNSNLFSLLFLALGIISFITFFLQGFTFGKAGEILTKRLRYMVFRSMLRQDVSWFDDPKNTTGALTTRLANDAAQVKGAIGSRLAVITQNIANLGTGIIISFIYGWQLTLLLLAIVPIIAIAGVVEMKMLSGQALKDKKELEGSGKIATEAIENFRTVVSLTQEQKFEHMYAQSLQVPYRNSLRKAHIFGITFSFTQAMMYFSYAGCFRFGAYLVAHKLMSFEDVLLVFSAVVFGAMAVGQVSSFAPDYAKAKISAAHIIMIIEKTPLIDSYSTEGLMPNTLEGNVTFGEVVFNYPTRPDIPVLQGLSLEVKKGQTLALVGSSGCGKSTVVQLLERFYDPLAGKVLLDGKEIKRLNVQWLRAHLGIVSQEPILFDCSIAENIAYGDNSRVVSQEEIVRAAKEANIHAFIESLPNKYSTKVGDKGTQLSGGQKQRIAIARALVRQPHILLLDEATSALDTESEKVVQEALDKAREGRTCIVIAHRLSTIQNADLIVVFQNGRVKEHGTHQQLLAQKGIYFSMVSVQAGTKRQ

CYP2C19 enzymes = CYP2C19 enzymes (Homo sapiens, UniProt P33261); details: in vitro; cited from earlier work
Sequence of CYP2C19 enzymes (P33261 whole entry): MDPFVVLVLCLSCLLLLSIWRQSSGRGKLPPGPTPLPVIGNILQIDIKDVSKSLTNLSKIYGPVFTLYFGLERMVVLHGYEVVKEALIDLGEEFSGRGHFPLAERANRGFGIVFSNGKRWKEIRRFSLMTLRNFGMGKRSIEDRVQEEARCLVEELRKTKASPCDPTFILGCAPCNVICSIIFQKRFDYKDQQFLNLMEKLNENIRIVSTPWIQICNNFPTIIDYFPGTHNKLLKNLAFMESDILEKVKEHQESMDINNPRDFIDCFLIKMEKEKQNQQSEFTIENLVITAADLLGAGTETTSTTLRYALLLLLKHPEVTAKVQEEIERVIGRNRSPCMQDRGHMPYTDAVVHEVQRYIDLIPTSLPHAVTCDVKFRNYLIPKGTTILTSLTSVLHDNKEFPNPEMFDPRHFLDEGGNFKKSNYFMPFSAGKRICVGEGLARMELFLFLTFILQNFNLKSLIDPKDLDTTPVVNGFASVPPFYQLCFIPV

[4] = test system: grade 2 endometrial cancer organoids; experiment: Grade 2 endometrial cancer organoid viability, carboplatin alone or with cannabis extract; assay type: cell-based, human; details: carboplatin alone, 50 and 100 μm/mL
[5] = test system: patient derived endometrial cancer cells; experiment: Patient-derived xenograft (PDX) mouse tumor volume; assay type: in vivo, mice; details: paclitaxel only, 10 mg/kg, 21 days
Source text: All treatment group mice were kept alive for up to 10 weeks after drug injection or until the tumor volume grows bigger than 2500 mm^3.

| Molecule | % Cell Death [1] [%] | other results |
| --- | --- | --- |
| Bleomycin | 53 |  |
| COc1cc([C@@H]2c3cc4c(cc3[C@@H](O[C@@H]3O[C@@H]5CO[C@@H](C)O[C@H]5[C@H](O)[C@H]3O)[C@H]3COC(=O)[C@H]23)OCO4)cc(OC)c1O [Etoposide] | 33 |  |
| CCC1=C[C@@H]2CN(C1)Cc1c([nH]c3ccccc13)[C@@](C(=O)OC)(c1cc3c(cc1OC)N(C)[C@H]1[C@@](O)(C(=O)OC)[C@H](OC(C)=O)[C@]4(CC)C=CCN5CC[C@]31[C@@H]54)C2 [Vinorelbine] | 45 |  |
| CO[C@H]1C(=O)[C@]2(C)[C@@H](OC)C[C@H]3OC[C@@]3(OC(C)=O)[C@H]2[C@H](OC(=O)c2ccccc2)[C@]2(O)C[C@H](OC(=O)[C@H](O)[C@@H](NC(=O)OC(C)(C)C)c3ccccc3)C(C)=C1C2(C)C [Cabazitaxel] | 37 |  |
| CCc1c2c(nc3ccc(OC(=O)N4CCC(N5CCCCC5)CC4)cc13)-c1cc3c(c(=O)n1C2)COC(=O)[C@]3(O)CC [Irinotecan] | 51 |  |
| N.N.[Cl][Pt][Cl] [Cisplatin] | 36 |  |
| CCCCCc1cc(O)c2c(c1)OC(C)(C)[C@@H]1CCC(C)=C[C@@H]21 [THC, Δ-9-tetrahydrocannabinol] |  | onset to reach peak concentration ([2]; oral THC formulations): ~120 min |
| Nc1ccn([C@@H]2O[C@H](CO)[C@@H](O)C2(F)F)c(=O)n1 [Gemcitabine] | 56 |  |
| C=C(C)[C@@H]1CCC(C)=C[C@H]1c1c(O)cc(CCCCC)c(C(=O)O)c1O [CBDA, cannabidiolic acid] |  | percent viability of head and neck cancer organoids ([3]; at least 15 μg/mL CBDA): below 10% |
| 5-Fluorouaracil/Capecitabine | 61 |  |
| COc1cc2c(cc1O)CCN[C@]21CS[C@@H]2c3c(OC(C)=O)c(C)c4c(c3[C@H](COC1=O)N1[C@@H]2[C@H]2c3c(cc(C)c(OC)c3O)C[C@@H]([C@@H]1O)N2C)OCO4 [Trabectedine] | 32 |  |
| O=P1(N(CCCl)CCCl)NCCCO1 (stereo not drawn) [Cyclosphosphamide] | 32 |  |
| Cn1nnc2c(C(N)=O)ncn2c1=O [Temozolomide] | 40 |  |
| C=C(C)[C@@H]1CCC(C)=C[C@H]1c1c(O)cc(CCCCC)cc1O [CBD isolate, cannabidiol] |  | percent viability of head and neck cancer organoids ([3]; 10 μg/mL cannabis extract): effective in reducing the viability of the head and neck cancer organoids significantly |
| CN(C)/N=N/c1[nH]cnc1C(N)=O [Dacarbazine] | 32 |  |
| COc1cccc2c1C(=O)c1c(O)c3c(c(O)c1C2=O)C[C@@](O)(C(=O)CO)C[C@@H]3O[C@H]1C[C@H](N)[C@H](O)[C@H](C)O1 [Doxorubicin] | 39 |  |
| N[C@@H](Cc1ccc(N(CCCl)CCCl)cc1)C(=O)O [Melphalan] | 40 |  |
| C=C(C)[C@@H]1CCC(C)=C[C@H]1c1c(O)cc(CCCCC)cc1O [CBD, cannabidiol] |  | effect on peak plasma concentrations of CBD ([2]; coadministration of rifampicin (a CYP3A4 inducer)): significantly reduced peak plasma concentrations; effect on peak plasma drug concentrations ([2]; coadministration of the CYP3A4 inhibitor ketoconazole): nearly doubled peak plasma drug concentrations; inhibition of P-glycoprotein-mediated drug transport (P-glycoprotein): significantly inhibits P-glycoprotein-mediated drug transport; inhibition of CYP2C19 (CYP2C19 enzymes): potent inhibitor of CYP2C19 enzymes; organoid response ([1]; organoid of the chemoresistant endometrial cancer patient): significant response |
| O=C1c2c(O)ccc(O)c2C(=O)c2c(NCCNCCO)ccc(NCCNCCO)c21 [Mitoxantrone] | 50 |  |
| N.N.O=C([O-])C1(C(=O)[O-])CCC1.[Pt+2] [Carboplatin] | 30 | viability [4]: about 50% |
| CC[C@]1(O)C[C@@H]2CN(CCc3c([nH]c4ccccc34)[C@@](C(=O)OC)(c3cc4c(cc3OC)N(C)[C@H]3[C@@](O)(C(=O)OC)[C@H](OC(C)=O)[C@]5(CC)C=CCN6CC[C@]43[C@@H]65)C2)C1 [Vinblastine] | 38 |  |
| CC(=O)O[C@H]1C(=O)[C@@]2(C)[C@H]([C@H](OC(=O)c3ccccc3)[C@]3(O)C[C@H](OC(=O)[C@H](O)[C@@H](NC(=O)c4ccccc4)c4ccccc4)C(C)=C1C3(C)C)[C@]1(OC(C)=O)CO[C@@H]1C[C@@H]2O [Paclitaxel] | 39 | organoid viability ([3]; human, 14 days, 16 nm/mL): around 60%; organoid viability ([3]; paclitaxel alone, 4 nm/mL): virtually no impact on the organoid viability; effect on tumor volume [5]: in essence ineffective after an initial reduction at day 10 |
